Measured values published in ChEMBL document CHEMBL5055641, “First Total Synthesis and Structure-Activity Relationship of Iheyamide A, an Antitrypanosomal Linear Peptide Isolated from a Dapis sp. Marine Cyanobacterium” (J Nat Prod, 2021).

Assays:
[1] = system: Trypanosoma brucei rhodesiense; assay: Antitrypanosomal activity against Trypanosoma brucei rhodesiense IL-1501 assessed as inhibition of parasitic growth incubated for 69 hrs by resazurin dye based fluorescence assay; assay type: functional, organism-based; settings: IL-1501, 69 h
WI-38 = assay: Cytotoxicity against human WI-38 cells assessed as inhibition of cell proliferation incubated for 72 hrs by MTT assay; assay type: cell-based; settings: WI-38, 72 h

SMILES | IC50 [1] [µM] | IC50 (WI-38) [µM]
CC[C@H](C)[C@@H](C(=O)N1CCC[C@@H]1C(=O)N1C(=O)C=C(OC)[C@@H]1C(C)C)N(C)C(=O)[C@@H]1CCCN1C(=O)[C@H](C(C)C)N(C)C(=O)[C@@H](Cc1ccccc1)NC(=O)[C@H](Cc1ccccc1)N(C)C | 1.8 | > 20
CC[C@H](C)[C@@H](C(=O)N1CCCC1C(=O)N1C(=O)C=C(OC)[C@@H]1C(C)C)N(C)C(=O)[C@@H]1CCCN1C(=O)[C@@H](NC)C(C)C (single isomer, unassigned) | 17 | > 50
N=C(N)c1ccc(OCCCCCOc2ccc(C(=N)N)cc2)cc1 [PENTAMIDINE] | 0.005 | 

Further lines, with some results ahead:

IC50 [1] [µM] | SMILES | IC50 (WI-38) [µM]
35 | COC1=CC(=O)N[C@H]1C(C)C | > 50
24 | CC[C@H](C)[C@H](NC)C(=O)N1CCCC1C(=O)N1C(=O)C=C(OC)[C@@H]1C(C)C (single isomer, unassigned) | > 50
33 | COC1=CC(=O)N(C(=O)C2CCCN2)[C@H]1C(C)C (single isomer, unassigned) | > 50
15 | CC[C@H](C)[C@@H](C(=O)N1CCCC1C(=O)N1C(=O)C=C(OC)[C@@H]1C(C)C)N(C)C(=O)[C@@H]1CCCN1 (single isomer, unassigned) | > 50
